Test results taken from ChEMBL document CHEMBL6078724, “Discovery of the first examples of right open reading frame kinase 2 (RIOK2) molecular glue degraders” (Eur J Med Chem, 2025).
Active and inactive are the calls of the source. The calls are words filed in the database; no cut-off is given here.

What was measured:
[1] = biological target: T1, E3 ubiquitin-protein ligase RNF126/Serine/threonine-protein kinase RIO2 (Homo sapiens, UniProt Q9BVS4+Q9BV68); experiment: Molecular glue degradation activity at RNF126/RIOK2 in MG132-treated human MOLT-4 cells assessed as induction protein degradation at 1 uM incubated for 12 hrs by immunoblot analysis; assay type: cell-based
Target sequence in this assay (Q9BV68 2-311 partner limits assumed): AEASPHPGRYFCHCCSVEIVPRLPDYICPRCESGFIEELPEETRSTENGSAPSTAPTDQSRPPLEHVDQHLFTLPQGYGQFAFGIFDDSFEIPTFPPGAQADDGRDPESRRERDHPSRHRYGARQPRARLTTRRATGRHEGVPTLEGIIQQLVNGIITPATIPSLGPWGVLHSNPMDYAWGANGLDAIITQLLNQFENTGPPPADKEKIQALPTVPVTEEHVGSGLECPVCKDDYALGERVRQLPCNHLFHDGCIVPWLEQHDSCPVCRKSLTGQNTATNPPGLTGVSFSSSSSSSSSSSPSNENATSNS
Target sequence in this assay (Q9BVS4 whole entry): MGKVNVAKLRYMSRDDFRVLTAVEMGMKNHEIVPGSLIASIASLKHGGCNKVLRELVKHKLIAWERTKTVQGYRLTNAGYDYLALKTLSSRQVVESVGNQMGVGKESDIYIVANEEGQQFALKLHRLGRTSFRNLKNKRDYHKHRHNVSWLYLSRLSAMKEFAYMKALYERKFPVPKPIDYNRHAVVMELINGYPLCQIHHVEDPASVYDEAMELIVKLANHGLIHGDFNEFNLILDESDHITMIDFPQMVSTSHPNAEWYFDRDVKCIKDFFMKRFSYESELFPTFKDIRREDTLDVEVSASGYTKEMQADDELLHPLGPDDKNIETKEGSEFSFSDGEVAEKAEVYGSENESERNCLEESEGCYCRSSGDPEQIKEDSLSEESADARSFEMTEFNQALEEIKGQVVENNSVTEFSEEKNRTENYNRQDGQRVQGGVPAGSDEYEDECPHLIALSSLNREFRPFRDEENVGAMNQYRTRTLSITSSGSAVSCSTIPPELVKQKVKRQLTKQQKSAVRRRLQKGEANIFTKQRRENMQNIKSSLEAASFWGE

[2] = biological target: T1, E3 ubiquitin-protein ligase RNF126/Serine/threonine-protein kinase RIO2; experiment: Molecular glue degradation activity at RNF126/RIOK2 in human MOLT-4 cells assessed as increase in ubiquitination of RIOK2 at 1 uM incubated for 10 hrs by immunoblot analysis; assay type: cell-based
Target sequence in this assay (Q9BV68 2-311 partner limits assumed): as the sequence (Q9BV68 2-311 partner limits assumed) above
Target sequence in this assay (Q9BVS4 whole entry): as the sequence (Q9BVS4 whole entry) above

[3] = biological target: T1, E3 ubiquitin-protein ligase RNF126/Serine/threonine-protein kinase RIO2; experiment: Molecular glue degradation activity at RNF126/RIOK2 in human U-937 cells assessed as induction protein degradation by immunoblot analysis; assay type: cell-based
Target sequence in this assay (Q9BVS4 whole entry): as above
Target sequence in this assay (Q9BV68 whole entry): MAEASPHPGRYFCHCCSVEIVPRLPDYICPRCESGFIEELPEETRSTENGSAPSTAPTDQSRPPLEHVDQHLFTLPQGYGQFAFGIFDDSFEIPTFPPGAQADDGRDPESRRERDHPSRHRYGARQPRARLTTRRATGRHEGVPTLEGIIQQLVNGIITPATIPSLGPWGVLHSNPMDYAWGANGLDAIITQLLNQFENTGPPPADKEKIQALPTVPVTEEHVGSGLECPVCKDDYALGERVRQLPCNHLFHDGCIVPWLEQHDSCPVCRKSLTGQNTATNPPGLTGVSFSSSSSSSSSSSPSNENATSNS

[4] = biological target: T1, E3 ubiquitin-protein ligase RNF126/Serine/threonine-protein kinase RIO2; experiment: Molecular glue degradation activity at RNF126/RIOK2 in human HL-60 cells assessed as induction protein degradation by immunoblot analysis relative to control; assay type: cell-based
Target sequence in this assay (Q9BV68 2-311 partner limits assumed): as the sequence (Q9BV68 2-311 partner limits assumed) above
Target sequence in this assay (Q9BVS4 whole entry): as the sequence (Q9BVS4 whole entry) above

[5] = tested on: HL-60; experiment: Antiproliferative activity against human HL-60 cells incubated for 72 hrs by CCK8 assay; assay type: functional, cell-based; settings: HL-60, 72 h
[6] = tested on: OCI-Ly3; experiment: Antiproliferative activity against human OCILY3 cells incubated for 72 hrs by CCK8 assay; assay type: functional, cell-based; settings: OCI-Ly3, 72 h
[7] = biological target: Serine/threonine-protein kinase RIO2 (Homo sapiens, UniProt Q9BVS4); experiment: Inhibition of RIOK2 (unknown origin) ATPase activity incubated for 2 hrs in presence of ATP by ADP-Glo assay
[8] = tested on: MOLT-4; experiment: Induction of apoptosis in human MOLT-4 cells at 900 nM incubated for 48 hrs by Annexin V-FITC/PI staining based flow cytometry relative to control; assay type: functional
[9] = tested on: MOLT-4; experiment: Induction of cell cycle arrest in human MOLT-4 cells assessed as decrease in CDK2 level by Western blot analysis; assay type: functional, cell-based; settings: dose <= 900.0 nM
[10] = Clearance in Sprague-Dawley rat at 5 mg/kg, iv measured for 24 hrs; assay type: ADME, organism-based; settings: in vivo
[11] = AUClast in Sprague-Dawley rat at 10 mg/kg, ip measured for 24 hrs; assay type: ADME, organism-based; settings: in vivo

Chain of Serine/threonine-protein kinase RIO2 (Q9BVS4 whole entry): as above

- Activity [1]: inactive
- Activity [2]: Active
- DC50 [3]: 1300 nM
- Emax [4]: 74.6%
- IC50 [5]: 340 nM
- IC50 [6]: 120 nM
- IC50 [7]: 98 nM
- clearance [10]: 69.2 mL/min/kg
- AUClast [11]: 1200 ng·h/mL
SMILES: COc1ccc(-c2ccc3[nH]c(=O)c4nnn(-c5ccc(N6CCN(C(=O)/C=C/C(=O)c7ccc(F)cc7)CC6)c(C(F)(F)F)c5)c4c3c2)cn1
- Activity [8]: 57.11%
- Activity [9]: Dose-dependent-effect
